Measurements from patent US10918645B2 (LIFEARC, priority 2016, dated 2021).

Key:
[1] = system: transgenic Drosophila expressing LRRK2-G2019S in dopamine (DA) neurons; assay: Drosophila model survival rate; format: in vivo; conditions: significance compared to DMSO negative control
Source text: (§1) Drosophila model was used to evaluate Examples in vivo. The GAL4/UAS system developed by Andrea Brand and Norbert Perrimon in 1993 [45] was used to generate transgenic Drosophila expressing LRRK2-G2019S in dopamine (DA) neurons. The system has two parts: the GAL4 gene, encoding the yeast transcription activator protein GAL4, and the UAS (Upstream Activation Sequence), an enhancer to which GAL4 specifically binds to activate gene transcription. This system takes advantage of the yeast GAL4 transcription factor, which binds specifically to the UAS.
To express LRRK2-G2019S in DA neurons, the UAS-Wild Type-LRRK2 and UAS-G2019S-LRRK2 transgenes were combined with the dopa decarboxylase (ddc)-GAL4 driver. The 10 μM GW5074 was used for the positive control. […]
Twenty newly enclosed female Drosophila were collected and placed in a food vial. The Drosophila were moved to fresh food vials every other day at which time deaths were scored.
Based on Drosophila′ survival curve, the 50% survival time parameter indicates the time at which half of the Drosophila remained alive and was used to compare the survival ratio between the different groups. The mean 50% survival times and the standard errors were calculated based on 4 separate experiments for each group. The data were analysed by GraphPad PRISM® 6.0 software.

[2] = system: transgenic Drosophila expressing LRRK2-G2019S in dopamine (DA) neurons; assay: Drosophila model climbing assay (negative geotaxis); format: in vivo; conditions: significance compared to DMSO negative control
Source text: as §1
To express LRRK2-G2019S in DA neurons, the UAS-Wild Type-LRRK2 and UAS-G2019S-LRRK2 transgenes were combined with the dopa decarboxylase (ddc)-GAL4 driver. The 10 μM GW5074 was used for the positive control. The negative control group was DMSO control (all compounds were dissolved in DMSO with 1:1000 dillution). The Drosophila were maintained at 25° C. on a 12 hour light-12 hour dark cycle. GW5074 was used as positive control.
The negative geotaxis assay was used to analyse the locomotors ability of the Drosophila. Twenty Drosophila from each vial and 4 vials for each group were performed the climbing assay weekly.
The tested Drosophila were transferred into a vertical plastic tube (15 cm tall, 1.5 cm in diameter). After 30 min of rest at room temperature, the Drosophila were gently tapped to the bottom of the tube, the numbers of Drosophila that could climb to or above the test line within 10 seconds were counted and the percent were calculated.
The climbing abilities were analysed based on three separate experiments for each vial and the data were analysed by GraphPad PRISM® 6.0 software.

[3] = target: LRRK2 (phospho S935) in Drosophila brain lysates (Homo sapiens (Human), UniProt Q5S007, G2019S); assay: Drosophila model kinase assays at week 6; format: in vivo; conditions: ratio of phosphate LRRK2 protein to Flag protein, significance compared to DMSO negative control
LRRK2 (phospho S935) in Drosophila brain lysates, sequence (Q5S007 whole entry G2019S): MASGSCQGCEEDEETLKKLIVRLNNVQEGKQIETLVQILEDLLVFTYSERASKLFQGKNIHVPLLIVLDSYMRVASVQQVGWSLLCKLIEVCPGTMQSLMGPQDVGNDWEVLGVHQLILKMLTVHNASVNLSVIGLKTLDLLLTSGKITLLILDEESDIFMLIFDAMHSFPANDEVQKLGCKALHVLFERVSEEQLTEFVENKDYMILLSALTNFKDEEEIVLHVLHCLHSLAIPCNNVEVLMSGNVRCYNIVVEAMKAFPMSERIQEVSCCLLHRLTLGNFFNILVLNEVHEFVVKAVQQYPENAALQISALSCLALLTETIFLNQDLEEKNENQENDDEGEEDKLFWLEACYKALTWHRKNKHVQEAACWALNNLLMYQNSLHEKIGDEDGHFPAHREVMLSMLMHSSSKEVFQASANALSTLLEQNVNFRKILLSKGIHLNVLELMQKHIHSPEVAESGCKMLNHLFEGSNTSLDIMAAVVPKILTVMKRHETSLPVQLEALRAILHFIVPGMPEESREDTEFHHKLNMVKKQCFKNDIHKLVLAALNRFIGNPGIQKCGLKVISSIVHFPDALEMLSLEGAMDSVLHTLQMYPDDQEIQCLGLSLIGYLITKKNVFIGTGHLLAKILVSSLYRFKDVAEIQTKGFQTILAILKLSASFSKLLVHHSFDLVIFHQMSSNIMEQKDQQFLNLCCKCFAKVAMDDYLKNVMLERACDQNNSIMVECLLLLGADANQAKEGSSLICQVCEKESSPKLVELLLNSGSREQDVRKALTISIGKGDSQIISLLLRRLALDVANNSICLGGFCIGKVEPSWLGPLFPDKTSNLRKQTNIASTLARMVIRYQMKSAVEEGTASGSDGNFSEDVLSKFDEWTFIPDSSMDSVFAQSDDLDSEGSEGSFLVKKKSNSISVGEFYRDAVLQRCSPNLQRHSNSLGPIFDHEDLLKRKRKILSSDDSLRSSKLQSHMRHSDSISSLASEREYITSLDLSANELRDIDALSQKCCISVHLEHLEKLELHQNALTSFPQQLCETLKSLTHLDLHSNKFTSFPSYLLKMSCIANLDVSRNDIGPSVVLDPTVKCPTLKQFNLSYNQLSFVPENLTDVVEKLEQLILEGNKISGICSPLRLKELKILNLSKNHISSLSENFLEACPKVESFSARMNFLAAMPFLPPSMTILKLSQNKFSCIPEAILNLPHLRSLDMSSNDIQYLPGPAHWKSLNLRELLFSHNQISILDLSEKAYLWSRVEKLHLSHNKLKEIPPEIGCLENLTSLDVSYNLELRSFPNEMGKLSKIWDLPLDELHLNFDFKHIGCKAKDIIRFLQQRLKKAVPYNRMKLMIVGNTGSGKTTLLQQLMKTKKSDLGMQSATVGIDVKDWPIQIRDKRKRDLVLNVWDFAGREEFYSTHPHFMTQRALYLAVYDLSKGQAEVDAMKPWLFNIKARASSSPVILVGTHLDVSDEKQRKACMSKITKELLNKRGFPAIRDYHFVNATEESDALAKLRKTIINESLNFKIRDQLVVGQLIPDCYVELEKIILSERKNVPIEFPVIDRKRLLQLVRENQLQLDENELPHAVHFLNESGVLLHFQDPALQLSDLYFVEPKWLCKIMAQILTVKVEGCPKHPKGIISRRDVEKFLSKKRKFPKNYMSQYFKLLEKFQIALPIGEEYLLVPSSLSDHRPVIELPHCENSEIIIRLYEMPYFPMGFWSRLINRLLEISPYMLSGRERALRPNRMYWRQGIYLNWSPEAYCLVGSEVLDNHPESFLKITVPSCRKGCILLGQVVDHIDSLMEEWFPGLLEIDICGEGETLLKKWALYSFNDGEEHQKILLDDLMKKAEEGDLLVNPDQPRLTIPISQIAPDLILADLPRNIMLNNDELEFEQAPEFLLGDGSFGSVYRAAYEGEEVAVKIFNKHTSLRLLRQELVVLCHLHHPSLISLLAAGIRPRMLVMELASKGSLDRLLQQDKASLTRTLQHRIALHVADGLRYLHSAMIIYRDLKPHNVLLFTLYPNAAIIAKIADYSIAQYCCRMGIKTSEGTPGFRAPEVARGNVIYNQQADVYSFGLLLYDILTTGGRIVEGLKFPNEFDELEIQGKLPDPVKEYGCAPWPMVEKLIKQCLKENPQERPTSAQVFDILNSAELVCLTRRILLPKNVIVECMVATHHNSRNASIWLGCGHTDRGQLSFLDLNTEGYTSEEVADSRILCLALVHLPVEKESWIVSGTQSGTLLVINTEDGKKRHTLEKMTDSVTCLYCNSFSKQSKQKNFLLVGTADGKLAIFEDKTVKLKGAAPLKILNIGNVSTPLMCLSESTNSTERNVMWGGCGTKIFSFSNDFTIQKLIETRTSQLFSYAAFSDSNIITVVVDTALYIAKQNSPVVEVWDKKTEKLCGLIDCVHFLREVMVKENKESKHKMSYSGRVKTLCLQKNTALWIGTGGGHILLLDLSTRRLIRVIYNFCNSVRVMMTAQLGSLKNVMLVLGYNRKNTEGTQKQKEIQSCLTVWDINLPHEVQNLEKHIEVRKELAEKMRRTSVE
Experimental: The 10 μM GW5074 was used for the positive control. The negative control group was DMSO control (all compounds were dissolved in DMSO with 1:1000 dillution). The Drosophila were maintained at 25° C. on a 12 hour light-12 hour dark cycle. GW5074 was used as positive control [47].
The adult Drosophila heads were homogenized on ice, and the brain lysates were performed kinase reaction in kinase reaction buffer with ATP and DTT.
Then the lysates were electrophoresed through 12% SDS-PAGE gels and transferred to PVDF membranes (Millipore). The membranes were blocked in TBST with 5% skimmed milk for 1 hour at room temperature and then incubated in anti-LRRK2 pSer935 antibody (Abcam, ab133450) and anti-Flag antibody overnight at 4° C.
The proteins were detected with HRP-conjugated secondary antibodies and ECL detection reagents. The optical density of immunoblotting was analysed by Image J software and the ratio of phosphate LRRK2 protein compare to Flag protein were calculated and the data were analysed by GraphPad PRISM® 6.0 software.

LRRK2 G2019S = LRRK2 G2019S (Homo sapiens (Human), UniProt Q5S007, G2019S); assay: Adapta Kinase Assay (LRRK2_IC50 assay); format: biochemical; conditions: inhibition of LRRK2 G2019S
LRRK2 G2019S, sequence (Q5S007 970-2527 G2019S): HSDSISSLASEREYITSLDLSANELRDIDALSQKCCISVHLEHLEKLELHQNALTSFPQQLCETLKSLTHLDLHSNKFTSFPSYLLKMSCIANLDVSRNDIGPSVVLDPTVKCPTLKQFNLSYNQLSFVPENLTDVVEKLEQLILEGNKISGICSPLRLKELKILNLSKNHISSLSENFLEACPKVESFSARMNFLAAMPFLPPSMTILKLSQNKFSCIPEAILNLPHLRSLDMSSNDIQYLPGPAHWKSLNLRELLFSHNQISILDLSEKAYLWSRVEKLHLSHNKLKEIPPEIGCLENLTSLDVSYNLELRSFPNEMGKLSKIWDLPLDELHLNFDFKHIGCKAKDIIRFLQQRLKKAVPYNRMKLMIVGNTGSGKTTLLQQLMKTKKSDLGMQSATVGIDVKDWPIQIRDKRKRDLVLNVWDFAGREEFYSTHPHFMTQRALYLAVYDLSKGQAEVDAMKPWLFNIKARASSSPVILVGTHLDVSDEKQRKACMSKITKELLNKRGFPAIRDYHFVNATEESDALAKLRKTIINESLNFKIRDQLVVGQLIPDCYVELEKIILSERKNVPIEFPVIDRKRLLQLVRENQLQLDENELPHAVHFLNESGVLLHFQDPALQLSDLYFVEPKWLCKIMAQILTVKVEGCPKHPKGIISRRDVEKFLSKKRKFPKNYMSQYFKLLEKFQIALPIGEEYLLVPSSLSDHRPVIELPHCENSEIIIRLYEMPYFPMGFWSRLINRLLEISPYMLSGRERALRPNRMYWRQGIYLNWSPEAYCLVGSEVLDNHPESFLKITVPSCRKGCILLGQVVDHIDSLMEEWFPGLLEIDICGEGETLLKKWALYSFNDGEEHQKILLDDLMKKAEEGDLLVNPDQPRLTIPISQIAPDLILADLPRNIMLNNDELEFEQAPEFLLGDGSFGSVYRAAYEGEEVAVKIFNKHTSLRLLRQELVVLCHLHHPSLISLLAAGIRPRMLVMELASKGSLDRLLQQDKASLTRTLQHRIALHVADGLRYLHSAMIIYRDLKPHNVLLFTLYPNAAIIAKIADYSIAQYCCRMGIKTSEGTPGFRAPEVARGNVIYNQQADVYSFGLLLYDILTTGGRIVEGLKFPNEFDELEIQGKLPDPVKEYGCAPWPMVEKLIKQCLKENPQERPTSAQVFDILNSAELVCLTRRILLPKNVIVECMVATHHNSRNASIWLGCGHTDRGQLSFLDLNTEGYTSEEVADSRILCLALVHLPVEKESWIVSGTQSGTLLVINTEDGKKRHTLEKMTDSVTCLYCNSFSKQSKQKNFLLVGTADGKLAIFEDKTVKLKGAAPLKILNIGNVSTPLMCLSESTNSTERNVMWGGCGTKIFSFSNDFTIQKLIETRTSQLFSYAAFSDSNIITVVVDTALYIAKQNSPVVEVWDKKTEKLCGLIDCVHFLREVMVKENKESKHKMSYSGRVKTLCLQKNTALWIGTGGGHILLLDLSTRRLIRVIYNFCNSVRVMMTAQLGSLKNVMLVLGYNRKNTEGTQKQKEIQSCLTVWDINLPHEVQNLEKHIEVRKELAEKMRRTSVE
Experimental: In Adapta™ Kinase Assay (LRRK2_IC50 assay): the Kinase Reaction Buffer contained 5× Kinase Buffer S (Life Technologies, PV5213) and 2 mM DTT (Life Technologies, P2325).
The Adapta® universal kinase assay is a homogenous, fluorescent based immunoassay for the detection of ADP. In contrast to ATP depletion assays, the Adapta® assay is extremely sensitive to ADP formation such that a majority of the signal change occurs in the first 10-20% conversion of ATP to ADP. This makes the Adapta® universal kinase assay ideally suited for use with low activity kinases.
Prepare a 1× solution of kinase reaction buffer from the 5× Kinase Buffer S stock (listed above) by adding 2 ml of 5× stock to 8 ml of H2O to make 10 ml of 1× kinase reaction buffer. To this, add 20 μl of 1 M DTT.
Kinase reactions are performed in a 10 μl volume in low-volume 384-well plates. […] Other non—treated assay plates, while not tested, may also be suitable. The concentration of substrate in the assay is 100 μM, and the 1× kinase reaction buffer consists of 50 mM Tris-HCl pH8.5, 10 mM MgCl2, 1 mM EGTA, 0.01% Brij-35, and 2 mM DTT, plus any additional additives that may be required for a specific kinase. […] The plate is allowed to equilibrate at room temperature for at least 30 minutes before being read on a plate reader configured for Adapta™ TR-FRET.
The data presented in this document were generated using a BMG LABTECH PHERAstar plate reader using the appropriate filters and instrument settings for Adapta™. The Test Compounds are screened in 1% DMSO (final) in the well. For 8 point titrations, 5-fold serial dilutions are conducted from the starting concentration.
(§2) IC50 estimates were obtained using the software XLfit (IDBS Inc.).

JAK2 = JAK2 (Homo sapiens (Human), UniProt O60674); assay: LANCE Kinase Assay (JAK2_IC50 selectivity assay); format: biochemical
Source text: In LANCE® Kinase Assay (JAK2_IC50 selectivity assay): JAK2 (Invitrogen, Cat. No PV4288), ATP (Sigma, Cat. No. A7699-1G), DMSO (Sigma, Cat. No. D2650), DTT (Sigma, Cat. No. 43815), LANCE Ultra ULight™-JAK-1 peptide (Perkin Elmer, Cat. No. TRF0121), LANCE Eu-W1024 Anti-phosphotyrosine (PT66) (Perkin Elmer, Cat. No. AD0069), LANCE™ Detection Buffer (Perkin Elmer, Cat. No. CR97-100), Tofacitinib (PharmaBlock Sciences(Nanjing), Inc, Cat. No. PBN2011586-01); Equipments: Envision (Perkin Elmer), Bravo (Agilent); Consumables: 384 well Intermediate plate (Greiner, Cat. No. 781280), 384 well assay plate (Perkin Elmer, Cat. No. 6007299),
The assay involves two steps, the enzymatic step and the detection step with HTRF reagents. Step 1: During the enzymatic step the substrate-biotin is incubated with the kinase of interest. ATP is added to start the reaction. Step 2: The detection reagent catches the phosphorylated substrate and the resulting TR-FRET is proportional to the phosphorylation level.
Compound Preparation: Dissolve the test compounds into 30 mM DMSO solution and put them in nitrogen hood at room temperature for long term storage; Dilute the 30 mM compound in DMSO with 3-fold factor, total 11 concentrations; Aspirate 1 μl compound and then dilute them in 25 folds with kinase buffer. Mix well and balance 30 minutes at room temperature.
Kinase Reaction: Transfer 2.5 μl compounds in kinase buffer (4×) into assay plate by Agilent Bravo. Spin the plate; Transfer 5 μl enzyme mixture into the assay plate by using Eppendorf electronic multi-channel pipette. Spin the plate; Incubate the assay plate for 20 minutes at room temperature (23° C.); Add 2.5 μl kinase buffer with ATP into the assay plate by using Multidrop. Spin and seal the plate; Incubate the assay plate for 90 minutes at room temperature (23° C.).
Stop Reaction: Transfer 10 μl detection reagent (2 nM LANCE Eu-W1024 Anti-phosphotyrosine) into the assay plate by using Eppendorf electronic multi-channel pipette. Spin and seal the plate; Incubate the assay plate at room temperature (23° C.) for 60 minutes.
Detection and Read: The excitation wavelength is 340 nm, the primary emission wavelength is 615 nm and the secondary emission wavelength is 665 nm (for Cryptate and Ulight, respectively). Read the plate with EnVision to get the readout of both wavelengths; Calculate the ratio of 665 nm/615 nm.
as §2

Compound: c1ccc2c(c1)CN(C1CCOCC1)c1nccc3[nH]nc-2c13 [Example 58]
- Survival Rate [1]: ** (P < 0.01, compared to DMSO negative control)
- Climbing Assay 3 weeks ([2]; 3 weeks): * (P < 0.05, compared to DMSO negative control)
- Climbing Assay 4 weeks ([2]; 4 weeks): * (P < 0.05, compared to DMSO negative control)
- Climbing Assay 5 weeks ([2]; 5 weeks): ** (P < 0.01, compared to DMSO negative control)
- Climbing Assay 6 weeks ([2]; 6 weeks): ** (P < 0.01, compared to DMSO negative control)
- Kinase Assays [3]: * (P < 0.05, compared to DMSO negative control)

Compound: CN1CCN(C2CCOCC2)c2nccc3[nH]nc1c23 [Example 93, 9-methyl-6-(tetrahydro-2H-pyran-4-yl)-6,7,8,9-tetrahydro-2H-1,2,5,6,9-pentaazabenzo[cd]azulene]
- IC50 (LRRK2 G2019S): 170 nM
- IC50 (JAK2): > 30000 nM
